Patent publication US12667572B2, “Tricyclic compounds useful in the treatment of cancer, autoimmune and inflammatory disorders” (SCHRÖDINGER, INC., priority 2021, dated 2026)

These compounds were tested against T1, full-length MALT1 protein His-MALT1(1-824) (Homo sapiens, UniProt Q9UDY8) (assay: MALT1 protease assay, Assay 2 (1 nM MALT1, Ac-LRSR-AMC substrate)). Conditions: 1 nM MALT1, 50 μM Ac-LRSR-AMC, 2 h pre-incubation, 8 hr incubation at RT.
T1 construct: full-length MALT1 protein His-MALT1(1-824); His (N); made in house; host or cells: baculovirus-infected insect cells
T1 sequence (Q9UDY8 1-824): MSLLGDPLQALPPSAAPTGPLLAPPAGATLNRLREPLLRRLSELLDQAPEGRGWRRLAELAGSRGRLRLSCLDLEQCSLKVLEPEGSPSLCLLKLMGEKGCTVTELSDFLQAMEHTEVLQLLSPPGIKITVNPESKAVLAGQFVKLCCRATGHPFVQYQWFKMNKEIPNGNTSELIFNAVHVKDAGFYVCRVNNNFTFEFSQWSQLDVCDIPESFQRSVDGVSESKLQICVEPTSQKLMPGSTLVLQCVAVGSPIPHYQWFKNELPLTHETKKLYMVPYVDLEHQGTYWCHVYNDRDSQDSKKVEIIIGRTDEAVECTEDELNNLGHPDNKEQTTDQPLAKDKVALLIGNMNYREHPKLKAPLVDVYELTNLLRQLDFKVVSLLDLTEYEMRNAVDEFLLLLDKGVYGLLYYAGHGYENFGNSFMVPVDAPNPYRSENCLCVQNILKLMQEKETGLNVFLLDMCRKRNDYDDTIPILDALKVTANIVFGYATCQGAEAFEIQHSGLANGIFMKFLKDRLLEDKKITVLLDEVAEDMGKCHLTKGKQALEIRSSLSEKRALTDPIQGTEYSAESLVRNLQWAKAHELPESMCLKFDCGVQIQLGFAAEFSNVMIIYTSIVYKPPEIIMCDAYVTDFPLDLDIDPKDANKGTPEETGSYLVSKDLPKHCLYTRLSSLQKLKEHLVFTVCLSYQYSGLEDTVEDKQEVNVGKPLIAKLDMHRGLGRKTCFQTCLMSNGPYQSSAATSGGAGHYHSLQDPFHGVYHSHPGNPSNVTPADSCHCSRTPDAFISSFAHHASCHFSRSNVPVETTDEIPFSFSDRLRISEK
Format: biochemical
In short: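 Compounds (0.1% DMSO final) sat 2 h at RT with insect-cell-expressed His-MALT1(1-824), in 50 mM Tris pH 7.5, 600 mM sodium citrate, 1 mM DTT, 1 mM EDTA, 0.05% BSA. Cleavage of 50 μM Ac-LRSR-AMC (Km ~100 μM) ran 8 h at RT, read as AMC fluorescence. IC50 and Hill coefficient fitted to % remaining activity.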

IC50 [nM] | Structure (SMILES)
100 to 1000 | CC1(C)CC(C(=O)Nc2cc(C(F)F)c(-c3ccno3)c(=O)[nH]2)c2cnc3cc(Cl)nn3c21 (centres unmarked) [Example 60, 2-chloro-N-(4-(difluoromethyl)-5-(isoxazol-5-yl)-6-oxo-1,6-dihydropyridin-2-yl)-8,8-dimethyl-7,8-dihydro-6H-cyclopenta[e]pyrazolo[1,5-a]pyrimidine-6-carboxamide]
10 to 100 | CC1(C)CC(C(=O)Nc2cc(C(F)F)c(-n3nccn3)c(=O)[nH]2)c2cnc3cc(Cl)nn3c21 (centres unmarked) [Example 61, 2-chloro-N-(4-(difluoromethyl)-6-oxo-5˜(2H-1,2,3-triazol-2-yl)-1,6-dihydropyridin-2-yl)-8,8-dimethyl-7,8-dihydro-6H-cyclopenta[e]pyrazolo[1,5-a]pyrimidine-6-carboxamide]
10 to 100 | CC1(C)CC(C(=O)Nc2cc(C(F)F)c(-n3cccn3)c(=O)[nH]2)c2cnc3cc(Cl)nn3c21 (centres unmarked) [Example 62, 2-chloro-N-(4-(difluoromethyl)-6-oxo-5-(1H-pyrazol-1-yl)-1,6-dihydropyridin-2-yl)-8,8-dimethyl-7,8-dihydro-6H-cyclopenta[e]pyrazolo[1,5-a]pyrimidine-6-carboxamide]
10 to 100 | N#Cc1cc(NC(=O)C2CC3(CC3)c3c2cnc2cc(F)nn32)cnc1OC(F)F (centres unmarked) [Example 82, N-(5-cyano-6-(difluoromethoxy)pyridin-3-yl)-2-fluoro-6,7-dihydrospiro[cyclopenta[e]pyrazolo[1,5-a]pyrimidine-8,1′-cyclopropane]-6-carboxamide]
100 to 1000 | CC1(C)CC(C(=O)Nc2cc(C#N)c(OC(F)F)nn2)c2cnc3cc(F)nn3c21 (centres unmarked) [Example 85, N-(5-cyano-6-(difluoromethoxy)pyridazin-3-yl)-2-fluoro-8,8-dimethyl-7,8-dihydro-6H-cyclopenta[e]pyrazolo[1,5-a]pyrimidine-6-carboxamide]
100 to 1000 | CC1(C)CC(C(=O)Nc2cnc(C(=O)NC3CC3)c(C(F)(F)F)c2)c2cnc3cc(Cl)nn3c21 (centres unmarked) [Example 112, 2-chloro-N-(6-(cyclopropylcarbamoyl)-5˜(trifluoromethyl)pyridin-3-yl)-8,8-dimethyl-7,8-dihydro-6H-cyclopenta[e]pyrazolo[1,5-a]pyrimidine-6-carboxamide]
10 to 100 | CCNC(=O)c1ncc(NC(=O)C2CC(C)(C)c3c2cnc2cc(Cl)nn32)cc1C(F)(F)F (centres unmarked) [Example 115, 2-chloro-N-(6-(ethylcarbamoyl)-5˜(trifluoromethyl)pyridin-3-yl)-8,8-dimethyl-7,8-dihydro-6H-cyclopenta[e]pyrazolo[1,5-a]pyrimidine-6-carboxamide]
10 to 100 | CC1(C)CC(C(=O)Nc2cnc(C(=O)N3CCC3)c(C(F)(F)F)c2)c2cnc3cc(Cl)nn3c21 (centres unmarked) [Example 118, N-(6-(azetidine-1-carbonyl)-5˜(trifluoromethyl)pyridin-3-yl)-2-chloro-8,8-dimethyl-7,8-dihydro-6H-cyclopenta[e]pyrazolo[1,5-a]pyrimidine-6-carboxamide]
100 to 1000 | CC1(C)CC(C(=O)Nc2cnc(-n3cc(C4COC4)nn3)c(Cl)c2)c2cnc3cc(Cl)nn3c21 (centres unmarked) [Example 119, 2-chloro-N-(5-chloro-6-(4-(oxetan-3-yl)-1H-1,2,3-triazol-1-yl)pyridin-3-yl)-8,8-dimethyl-7,8-dihydro-6H-cyclopenta[e]pyrazolo[1,5-a]pyrimidine-6-carboxamide]
10 to 100 | CC1(C)CC(C(=O)Nc2cnc(-n3ncnn3)c(Cl)c2)c2cnc3cc(Cl)nn3c21 (centres unmarked) [Example 120, 2-chloro-N-(5-chloro-6-(2H-tetrazol-2-yl)pyridin-3-yl)-8,8-dimethyl-7,8-dihydro-6H-cyclopenta[e]pyrazolo[1,5-a]pyrimidine-6-carboxamide]

Structure (SMILES) | IC50 [nM]
CC1(C)CC(O)(C(=O)Nc2cnc(-n3nccn3)c(Cl)c2)c2cnc3cc(Cl)nn3c21 (centres unmarked) [Example 69, 2-chloro-N-(5-chloro-6-(2H-1,2,3-triazol-2-yl)pyridin-3-yl)-6-hydroxy-8,8-dimethyl-7,8-dihydro-6H-cyclopenta[e]pyrazolo[1,5-a]pyrimidine-6-carboxamide] | ≥ 1000
